Assay results reported in US11679168B2, “Caspase-3-triggered molecular self-assembling PET probes and uses thereof” (The Board of Trustees of the Leland Stanford Junior …, priority 2018, dated 2023).

Assays:
[1] = Stability of [18F]-C-SNAT4 in human serum (HPLC); assay type: in vitro ADME; details: 37° C., over 2 h incubation
Procedure: FIG. 10 illustrates serum stability of [^18F]-C-SNAT4 in human serum. [^18F]-C-SNAT4 was incubated in serum at 37° C. and analyzed by HPLC.
At 24 h post treatment, mixture tracer of [^19F]-C-SNAT4 was injected with [^18F]-C-SNAT4 (mixture ratio at 1:200) through the tail vein for PET imaging (FIG. 24A-24C). For treated animal, tumor uptake of mixture tracer [^18F]/[^19F]-C-SNAT4 and [^18F]-C-SNAT4 were 2.9±0.3% ID/cc and 1.7±0.1% ID/cc, respectively at 85 min post injection. There was 1.7-fold increase of radioactivity in the mixture-treated mice. Overall, the uptake of [^18F]-C-SNAT4 was increased both in radiation and drug-treated tumors. In contrast, the tumor uptake of [^18F]/[^19F]-C-SNAT4 (ratio at 1:200) and [^18F]/[^19F]-C-SNAT4 (ratio at 1:80) in untreated tumor was 0.5±0.2% ID/cc and 0.3±0.2% ID/cc, respectively at 85 min after injection (FIG. 25A-25C), followed by a rapid signal decay back to baseline within a few minutes. There were no changes compared to the uptake of [^18F]-C-SNAT4 (0.4±0.1% ID/cc). […] The sample was centrifuged at 13,400 g for 10 min and […] of the resultant supernatant was diluted with […] of water and analyzed on HPLC. % intact tracer was calculated as %=(peak area for tracer/total peak area on the HPLC chromatogram)×100.

H460 cells = test: Radiotracer uptake in H460 cells; assay type: cell-based, human
Procedure: Temporal changes in cell-associated radioactivity in drug-treated cells or vehicle cells were measured with [18F]-C-SNAT4. Data are means±SD (n=3 per group). *, P<0.05; **, P<0.01; ***, P<0.005; *****, P<0.0001.
FIG. 22 illustrates that a mixture strategy enhances [^18F]-C-SNAT4 uptake in radiation (a single dose at 10 Gy) treated cells and vehicle human non-small cell lung cancer H460 cells. 40 μCi of mixture tracer [^18F]/[^19F]-C-SNAT4 (at ratio of 1:80 or 1:200) or 40 μCi [^18F]-C-SNAT4 were incubated in cells for 1 hour at 24 h post-IR treatment and radioactivity of [^18F] was measured using γ-counter. Data are means±SD (n=3 each group). *, P<0.05; **, P<0.01; ***, P<0.001.
Radiotracer uptake in cells: H460 and H1299 cells (2×10^5) were plated in 6-well cell culture plates over night before [^18F]-C-SNAT4 uptake analysis. […] After 24 h treatment, fresh, prewarmed RPMI Medium 1640 containing 1.48 MBq (40 μCi) [^18F]-C-SNAT4 was added to individual wells (1 ml/well; 13.3 pmol). At post 10, 30, 60 min, medium was removed, cells were lifted by trypsinization, and washed three-times with cold PBS. Radioactivity contained in cell pellets was measured using a gamma counter, with counts normalized to total protein concentration as determined by cell digestion using RIPA buffer followed by protein quantitation by the Bradford method. The final radiotracer [^18F]-C-SNAT4 uptake concentration was expressed as μM of % uptake/mg protein. Results were normalized to a vehicle control (PBS for [^18F]-C-SNAT4 experiments at different time-points) which was washed.

[2] = Blood half-life in healthy nude mice after intravenous injection; assay type: in vivo
From the text: FIG. 21 illustrates blood half-life in healthy nude mice after intravenous injection of [^18F]-C-SNAT4 (n=4).

[3] = Ex vivo biodistribution in H460 tumor-bearing mice; details: 2 h post injection
Procedure: FIG. 20 illustrates biodistribution of [^18F]-C-SNAT4 in H460 tumor-bearing female nude mice. Mice were administered approximately 200 μCi [^18F]-C-SNAT4, animal were exsanguinated through the left ventricle and indicated tissues were excised at 2 hours post-injection in mice bearing naïve-tumor (black) or drug-treated tumor (gray). Data represent the mean±S.D. (n=4 animals per groups)
Biodistribution study: H460 or H1299 tumor-bearing female nude mice were administered approximately 7.4 MBq of [^18F]-C-SNAT4 via the tail vein (n=4-5 per group). Mice were maintained under anesthesia and warmed to 37° C. to replicate imaging conditions. At 90 min after [^18F]-C-SNAT4 injection, animals were sacrificed by exsanguination via cardiac puncture. For all animals, tumors were excised immediately upon death, weighed using pre-weighted tubes, and rapidly placed in 10% formalin (Fisher Scientific) for fixation. Tumor and tissue decay-corrected radioactivity was subsequently determined using a Cobra II Auto-Gamma counter (Packard Biosciences Co, UK.) Predefined 1.85 MBq (50 μCi) standards (50 μl) were also counter for data normalization to injected dose. Data were expressed as percent injected dose per gram of tissue (% ID/g).

Which results are given for CCSSCC(NC(=O)C(CC(=O)O)NC(=O)C(NC(=O)C(CCC(=O)O)NC(=O)C(CC(=O)O)NC(C)=O)C(C)C)C(=O)NCC(=O)NC(Cc1cn(CCOCCOCCOCC[18F])nn1)C(=O)NCc1ccc(C(=O)NCCCOc2cnc(C#N)nc2)cc1 (stereo not shown) [[^18F]-C-SNAT4]?
percentage of [18F]-C-SNAT4 remained [1]: 77.5%; uptake of high dose-treated cells relative to control cells (H460 cells; H460, 10 min post incubation): 5.8 fold; uptake of low dose-treated cells relative to control cells (H460 cells; H460, 60 min post incubation): 2.4 fold; cell uptake (H460 cells; IR-treated (10 Gy, 24 h) H460, hot tracer only, 1 h): 3.9±0.4 % uptake/mg protein; cell uptake (H460 cells; cisplatin high dose (13.5 μM, 24 h) treated H460, 10 min post incubation): 2.3 % radioactivity/mg protein; cell uptake (H460 cells; cisplatin low dose (4.5 μM, 24 h) treated H460, 10 min): 0.7±0.1 % uptake/mg protein; cell uptake (H460 cells; cisplatin low dose (4.5 μM, 24 h) treated H460, 60 min): 1.45±0.11 % radioactivity/mg protein; cell uptake (H460 cells; control H460 cells of high dose experiment, 10 min post incubation): 0.4±0.1 % uptake/mg protein; cell uptake (H460 cells; non-treated H460, hot tracer only): 2.8±0.3 % uptake/mg protein; cell uptake (H460 cells; untreated H460, 10 min): 0.5±0.1 % radioactivity/mg protein; cell uptake (H460 cells; untreated H460, 60 min): 0.4 % uptake/mg protein; elimination from the blood ([2]; by 2 h after administration): nearly complete elimination; peak blood concentration ([2]; healthy nude mice, after 5 min): 15.21±2.66 % ID/g; blood life ([2]; healthy nude mice, i.v.): 0.4 ± 0.1 h; blood half-life ([2]; healthy nude mice, i.v., n=4): 21.6 ± 6.6 min; clearance route [3]: predominantly renal clearance
